In patent US20220071970A1, “QUINUCLIDINE-3-ONE DERIVATIVES AND THEIR USE IN CANCER TREATMENT” (Aprea Therapeutics AB, priority 2018, published 2022) one finds IC50 data, which are given here for 32 compounds.

The structures appear in SMILES notation. A value given as a limit tells only on which side of the number the result lay.

The experiment relates to SaOS-2 His273 mtp53 human osteosarcoma cell line. The experiment can be described thus: In vitro efficacy study using the SaOS-2 His273 protocol (CellTiter-Glo viability, 72 h). It counts as cell-based. To be noted: SAOS-2, 72 h, read-out: SaOS-2 His273 IC50. How it is done:
SaOS-2 His273 mtp53 is a human osteosarcoma cell line which has been genetically engineered at OnkPat CCK to express His273 mutated p53.
3000 cells/well (50 μl) were seeded into masked (black or white with clear bottom) 96-well cell culture plates using Iscove's Modified Dulbecco's Medium supplemented with 10% heat inactivated (56° C. for 60 min) fetal calf serum. The plates were then incubated for 4 hours, allowing the cells to attach. The test compounds were dissolved in DMSO or water to a concentration of 0.01 M and then further diluted to desired concentrations using the cell medium. 50 μl of freshly diluted test compound from fresh stock was added to the wells. The plates were then incubated for 72 hours.
For viability detection, CellTiter-Glo® Luminescent Cell Viability Assay (CTG) was used. CTG is a homogeneous “add-mix-measure” format method of determining the number of viable cells in culture based on quantitation of the ATP present, an indicator of metabolically active cells. The luminescence was measured using the PerkinElmer Victorx4 instrument.
The average of the signal values for the untreated cells was calculated for each plate. The % of growth suppression was calculated as:
100−((Signal sample/Signal untreated cells)×100).
The results of the SaOs-2 His273 analyses were expressed as IC50 values, i.e. concentration that suppresses growth of at least 50% of the cells. The IC50 values of various compounds according to the invention and of some comparative compounds are shown in Table 1, Table 2, Table 3 and Table 4.
(In general: Cellular ATP, detected with luciferase, serves as a proxy for viable cell number.)

Usually IC50 stands for the midpoint of a concentration-inhibition curve. `O=C1C2CCN(CC2)C1Cc1cnn[nH]1` (racemic) [Comparative example 5, 2-((1H-1,2,3-triazol-5-yl)methyl)quinuclidin-3-one, reference compound]: the IC50 was over 40 µM.
Consider `CCN(CC1C(=O)C2CCN1CC2)C(=O)C(Cl)(Cl)Cl` (racemic) [Example 1, 2,2,2-trichloro-N-ethyl-N-((3-oxoquinuclidin-2-yl)methyl)acetamide], for which the IC50 is 3.2 µM.
Take `O=C1C2CCN(CC2)C1CNC(=O)C(Cl)(Cl)Cl` (racemic) [Example 2, 2,2,2-trichloro-N-((3-oxoquinuclidin-2-yl)methyl)acetamide]: the IC50 was 6.9 µM.
The value for `CCN(CC1C(=O)C2CCN1CC2)C(=O)C(F)(F)F` (racemic) [Example 3, N-ethyl-2,2,2-trifluoro-N-((3-oxoquinuclidin-2-yl)methyl)acetamide] was 4.2 µM; that for `O=C(NCC1C(=O)C2CCN1CC2)C(F)F` (racemic) [Example 5, 2,2-difluoro-N-((3-oxoquinuclidin-2-yl)methyl)acetamide] was 13 µM; that for `O=C1C2CCN(CC2)C1CNS(=O)(=O)c1cccnc1` (racemic) [Example 6, N-((3-oxoquinuclidin-2-yl)methyl)pyridine-3-sulfonamide] was 7.2 µM.
With `O=C1C2CCN(CC2)C1CNS(=O)(=O)c1ccc(F)cc1` (racemic) [Example 7, 4-fluoro-N-((3-oxoquinuclidin-2-yl)methyl)benzenesulfonamide], the IC50 amounted to 7.2 µM.
In the case of `CCN(CC1C(=O)C2CCN1CC2)S(C)(=O)=O` (racemic) [Example 8, N-ethyl-N-((3-oxoquinuclidin-2-yl)methyl)methane-sulfonamide], the IC50 worked out at 6 µM.
Consider `CS(=O)(=O)NCC1C(=O)C2CCN1CC2` (racemic) [Example 9, N-((3-oxoquinuclidin-2-yl)methyl)methanesulfon-amide], for which the IC50 amounted to 8 µM.
The value for `O=C1C2CCN(CC2)C1CNS(=O)(=O)c1ccccc1` (racemic) [Example 10, N-((3-oxoquinuclidin-2-yl)methyl)benzenesulfon-amide] was 7.1 µM; that for `CS(=O)(=O)N(CC(N)=O)CC1C(=O)C2CCN1CC2` (racemic) [Example 11, 2-(N-((3-oxoquinuclidin-2-yl)methyl)methylsulfon-amido)acetamide] was 4.1 µM.
As to `CS(=O)(=O)N(CC(=O)O)CC1C(=O)C2CCN1CC2` (racemic) [Example 12, N-(methylsulfonyl)-N-((3-oxoquinuclidin-2-yl)-methyl)qlycine], the IC50 was 6 µM.
`O=C1C2CCN(CC2)C1CNS(=O)(=O)c1ccncc1` (racemic) [Example 13, N-((3-oxoquinuclidin-2-yl)methyl)pyridine-4-sulfon-amide]: the IC50 turned out to be 6.3 µM.
In the case of `O=C1C2CCN(CC2)C1CNS(=O)(=O)c1ccccn1` (racemic) [Example 14, N-((3-oxoquinuclidin-2-yl)methyl)pyridine-2-sulfonamide], the IC50 came to 6 µM.
Turning to `CCN(CC1C(=O)C2CCN1CC2)S(=O)(=O)C(F)(F)F` (racemic) [Example 15, N-ethyl-1,1,1-trifluoro-N-((3-oxoquinuclidin-2-yl)-methyl)methanesulfonamide], the IC50 amounted to 3.5 µM.
The value for `O=C1C2CCN(CC2)C1CNS(=O)(=O)C(F)(F)F` (racemic) [Example 16, 1,1,1-trifluoro-N-((3-oxoquinuclidin-2-yl)methyl)methanesulfonamide] was 2.9 µM; that for `CC(C)S(=O)(=O)NCC1C(=O)C2CCN1CC2` (racemic) [Example 18, N-((3-oxoquinuclidin-2-yl)methyl)propane-2-sulfonamide] was 11 µM; that for `O=C1C2CCN(CC2)C1CNS(=O)(=O)C1CC1` (racemic) [Example 19, N-((3-oxoquinuclidin-2-yl)methyl)cyclopropane-sulfonamide] was 12 µM.
The value for `CC1(S(=O)(=O)NCC2C(=O)C3CCN2CC3)CC1` (racemic) [Example 20, 1-methyl-N-((3-oxoquinuclidin-2-yl)methyl)cyclo-propane-1-sulfonamide] was 7.4 µM; that for `CS(=O)(=O)N(CC1C(=O)C2CCN1CC2)C1CC1` (racemic) [Example 21, N-cyclopropyl-N-((3-oxoquinuclidin-2-yl)methyl)-methanesulfonamide] was 1.8 µM; that for `CS(=O)(=O)N(CC1C(=O)C2CCN1CC2)c1ccccc1` (racemic) [Example 22, N-((3-oxoquinuclidin-2-yl)methyl)-N-phenyl-methanesulfonamide] was 1.6 µM.
Regarding `Cc1cn(CC2C(=O)C3CCN2CC3)c(=O)n(C(=O)OC(C)(C)C)c1=O` (racemic) [Example 25, tert-butyl 5-methyl-2,6-dioxo-3-((3-oxoquinuclidin-2-yl)methyl)-3,6-dihydropyrimidine-1(2H)-carboxylate], the IC50 came to 5.3 µM.
In the case of `CNC(=O)c1ncn(CC2C(=O)C3CCN2CC3)n1` (racemic) [Example 27, N-methyl-1-((3-oxoquinuclidin-2-yl)methyl)-1H-1,2,4-triazole-3-carboxamide], the 50% inhibitory concentration (IC50) turned out to be 5 µM.
Next, `O=C1C2CCN(CC2)C1Cn1cnc(Cl)n1` (racemic) [Example 28, 2-((3-chloro-1H-1,2,4-triazol-1-yl)methyl)quinuclidin-3-one]: 3.1 µM; `O=C1C2CCN(CC2)C1Cn1cncn1` (racemic) [Example 30, 2-((1H-1,2,4-triazol-1-yl)methyl)quinuclidin-3-one]: 26 µM.
Next, `N#Cc1ncn(CC2C(=O)C3CCN2CC3)n1` (racemic) [Example 31, 1-((3-oxoquinuclidin-2-yl)methyl)-1H-1,2,4-triazole-3-carbonitrile]: 2.4 µM; `NC(=O)c1ncn(CC2C(=O)C3CCN2CC3)n1` (racemic) [Example 32, 1-((3-oxoquinuclidin-2-yl)methyl)-1H-1,2,4-triazole-3-carboxamide]: 10 µM; `CC(=O)NCC1C(=O)C2CCN1CC2` (racemic) [compound 1, N-((3-oxoquinuclidin-2-yl)methyl)acetamide, reference compound]: over 40 µM.
Consider `O=C(NCC1C(=O)C2CCN1CC2)c1cccnc1` (racemic) [compound 2, N-((3-oxoquinuclidin-2-yl)methyl)nicotinamide, reference compound], for which the IC50 is over 40 µM.
Consider `O=C1C2CCN(CC2)C1Cn1cccn1` (racemic) [compound 4, 2-((1H-pyrazol-1-yl)methyl)quinuclidin-3-one, reference compound], for which the IC50 is over 40 µM.
For `CN(C)C(=O)c1ncn(CC2C(=O)C3CCN2CC3)n1` (single isomer, unassigned) [Example 29, N,N-dimethyl-1-((3-oxoquinuclidin-2-yl)methyl)-1H-1,2,4-triazole-3-carboxamide], the IC50 is 8.8 µM.
With `CS(=O)(=O)N(CC1C(=O)C2CCN1CC2)CC1C(=O)C2CCN1CC2` (centres unmarked) [Example 17, N,N-bis((3-oxoquinuclidin-2-yl)methyl)methanesulfonamide], the IC50 is 2.9 µM.
